Experimental data as given in US20250059182A1, “SOS1 INHIBITORS” (Mirati Therapeutics, Inc., priority 2021, published 2025).
Where two headings read alike, the source gives them in different places.

Experiments:
[1] = biological target: T1, recombinant human SOS1 polypeptide (amino acids 560-1049) (Homo sapiens, UniProt Q07889); assay: HTRF displacement assay: inhibition of labeled tracer binding to SOS1; conditions: Table A, Morrison equation for competitive binding
T1 construct: corresponding to amino acids 560-1049, expressed in E. Coli; made in house; host or cells: E. coli
T1 sequence (Q07889 560-1049): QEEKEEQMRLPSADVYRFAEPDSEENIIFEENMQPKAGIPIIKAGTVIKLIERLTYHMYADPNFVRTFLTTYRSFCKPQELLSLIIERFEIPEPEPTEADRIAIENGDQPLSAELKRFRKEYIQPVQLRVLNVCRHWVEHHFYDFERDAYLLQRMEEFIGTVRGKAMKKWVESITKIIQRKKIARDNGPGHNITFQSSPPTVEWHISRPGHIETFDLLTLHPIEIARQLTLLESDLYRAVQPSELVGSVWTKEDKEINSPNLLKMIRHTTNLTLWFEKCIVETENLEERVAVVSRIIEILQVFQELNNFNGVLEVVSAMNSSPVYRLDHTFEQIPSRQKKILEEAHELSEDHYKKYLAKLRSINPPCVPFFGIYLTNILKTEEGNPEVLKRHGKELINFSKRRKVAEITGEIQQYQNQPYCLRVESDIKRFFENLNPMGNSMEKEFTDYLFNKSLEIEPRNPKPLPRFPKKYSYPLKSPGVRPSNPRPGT
Experimental: The ability of a compound of Formula (I) to bind to SOS1 was measured using a HTRF displacement assay. […] After a 1-hour incubation at room temperature, the HTRF signal was measured using Clairostar plate reader (BMG Labtech) according to the manufacturer's instructions. Excitation filter EX-TR was used, and emission 1 was detected at 650-610 nm and emission 2 detected at 620-610 nm. The HTRF ratio was calculated using the formula: [emission 1/emission 2]*10000.
Background signals were calculated from well with a 10 μM inhibitor, known to inhibit 100% at that concentration. The background subtracted signals were converted to % binding relative to DMSO controls. Data were analyzed using XLFIT software (IDBS) using a Morrison equation for competitive binding and Ki's were generated compound of Formula (I).

[2] = tested on: pERK in MKN1 cells; assay: pERK inhibition, In-Cell Western (LI-COR Odyssey), MKN1 cells; type: cell-based; conditions: MKN1 or H358 cells (table does not say which), 0.5-1 hour incubation, read-out: IC50 (nM), pERK inhibition
How it was run: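 MKN1 cells were exposed for about 0.5–1 h at 37 °C to nine 3-fold dilutions starting at 10 µM. Cells were then fixed in formaldehyde, permeabilised with methanol, and immunostained for pERK and GAPDH with near-infrared secondary antibodies. GAPDH-normalised pERK signal relative to vehicle gave % inhibition, from which IC50 was fitted.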

Structure (SMILES) | Ki [1] [nM] | IC50 ([2]; Homo sapiens, MKN-1, Table B) [nM] | IC50 ([2]; Table B) [nM]
Cc1nnc(N[C@H](C)c2cccc(C(F)(F)F)c2F)c2cc(N3CCN(C)CC3)c(F)cc12 [Example 4-7, (R)-6-fluoro-N-(1-(2-fluoro-3-(trifluoromethyl)phenyl)ethyl)-4-methyl-7-(4-methylpiperazin-1-yl)phthalazin-1-amine] | 1.06 | 110 | –
Cc1c(C#N)cccc1[C@@H](C)Nc1nnc(C)c2cc(F)c(N3CC4(CN(C)C4)C3)cc12 [Example 4-9, (R)-3-(1-((6-fluoro-4-methyl-7-(6-methyl-2,6-diazaspiro[3.3]heptan-2-yl)phthalazin-1-yl)amino)ethyl)-2-methylbenzonitrile] | 0.343 | 24.1 | –
Cc1nnc(N[C@H](C)c2cccc(C(F)(F)F)c2F)c2cc(N3CC4(COC4)C3)c(F)cc12 [Example 4-10, (R)-6-fluoro-N-(1-(2-fluoro-3-(trifluoromethyl)phenyl)ethyl)-4-methyl-7-(2-oxa-6-azaspiro[3.3]heptan-6-yl)phthalazin-1-amine] | 2.4 | 141 | –
Cc1c(C#N)cccc1[C@@H](C)Nc1nnc(C)c2cc(F)c(N3CCN4CCOC[C@@H]4C3)cc12 [Example 4-11, 3-((R)-1-((6-fluoro-7-((S)-hexahydropyrazino[2,1-c][1,4]oxazin-8(1H)-yl)-4-methylphthalazin-1-yl)amino)ethyl)-2-methylbenzonitrile] | 5.77 | 162 | –
Cc1c(C#N)cccc1[C@@H](C)Nc1nnc(C)c2cc(F)c(N3C[C@@H]4C[C@H]3CO4)cc12 [Example 4-13, 3-((R)-1-((7-((1S,4S)-2-oxa-5-azabicyclo[2.2.1]heptan-5-yl)-6-fluoro-4-methylphthalazin-1-yl)amino)ethyl)-2-methylbenzonitrile] | 16.1 | 165 | –
Cc1c(C#N)cccc1[C@@H](C)Nc1nnc(C)c2cc(F)c(N3C[C@@H]4C[C@H]3CN4C)cc12 [Example 4-14, 3-((R)-1-((6-fluoro-4-methyl-7-((1S,4S)-5-methyl-2,5-diazabicyclo[2.2.1]heptan-2-yl)phthalazin-1-yl)amino)ethyl)-2-methylbenzonitrile] | 1.16 | – | 41.6
Cc1c(C#N)cccc1[C@@H](C)Nc1nnc(C)c2cc(F)c(N3C[C@H]4C[C@@H]3CO4)cc12 [Example 4-15, 3-((R)-1-((7-((1R,4R)-2-oxa-5-azabicyclo[2.2.1]heptan-5-yl)-6-fluoro-4-methylphthalazin-1-yl)amino)ethyl)-2-methylbenzonitrile] | 4.66 | 37.8 | –
Cc1nnc(N[C@H](C)c2cccc(C(C)(F)F)c2F)c2cc(N3CCN(C)CC3)c(F)cc12 [Example 4-16, (R)-N-(1-(3-(1,1-difluoroethyl)-2-fluorophenyl)ethyl)-6-fluoro-4-methyl-7-(4-methylpiperazin-1-yl)phthalazin-1-amine] | 0.742 | 52 | –
COCCN(C)c1cc2c(N[C@H](C)c3cccc(C#N)c3C)nnc(C)c2cc1F [Example 4-17, (R)-3-(1-((6-fluoro-7-((2-methoxyethyl)(methyl)amino)-4-methylphthalazin-1-yl)amino)ethyl)-2-methylbenzonitrile] | 9.16 | 814 | –
Cc1c(C#N)cccc1[C@@H](C)Nc1nnc(C)c2cc(F)c(N3CCN(C)C(C)(C)C3)cc12 [Example 4-18, (R)-3-(1-((6-fluoro-4-methyl-7-(3,3,4-trimethylpiperazin-1-yl)phthalazin-1-yl)amino)ethyl)-2-methylbenzonitrile] | 1.42 | 118 | –
Cc1c(C#N)cccc1[C@@H](C)Nc1nnc(C)c2cc(F)c(N3CCS(=O)(=O)CC3)cc12 [Example 4-19, (R)-3-(1-((7-(1,1-dioxidothiomorpholino)-6-fluoro-4-methylphthalazin-1-yl)amino)ethyl)-2-methylbenzonitrile] | 3.53 | 551 | –
Cc1c(C#N)cccc1[C@@H](C)Nc1nnc(C)c2cc(F)c(N3C[C@@H]4C[C@H]3CN4C)cc12 [Example 4-21, 3-((R)-1-((6-fluoro-4-methyl-7-((1S,4S)-5-methyl-2,5-diazabicyclo[2.2.1]heptan-2-yl)phthalazin-1-yl)amino)ethyl)-2-methylbenzonitrile] | 2 | – | 16
Cc1c([C@@H](C)Nc2nnc(C)c3cc(F)c(N4CCOCC4)cc23)cc(N)nc1C(F)(F)F [Example 4-22, (R)-N-(1-(6-amino-3-methyl-2-(trifluoromethyl)pyridin-4-yl)ethyl)-6-fluoro-4-methyl-7-morpholinophthalazin-1-amine] | 22 | 49 | –
Cc1nnc(N[C@H](C)c2cccc(C(F)(F)F)c2F)c2cc(N(C)C3CCN(C)CC3)c(F)cc12 [Example 4-23, (R)-6-fluoro-N^1-(1-(2-fluoro-3-(trifluoromethyl)phenyl)ethyl)-N^7,4-dimethyl-N^7-(1-methylpiperidin-4-yl)phthalazine-1,7-diamine] | 1.2 | 25 | –
Cc1c(C#N)cccc1[C@@H](C)Nc1nnc(N2CC[C@@H](N)C2)c2cnc(N3C[C@H]4C[C@@H]3CO4)cc12 [Example 5-1, 3-((R)-1-((4-((R)-3-aminopyrrolidin-1-yl)-7-((1R, 4R)-2-oxa-5-azabicyclo[2.2.1]heptan-5-yl)pyrido[3,4-d]pyridazin-1-yl)amino)ethyl)-2-methylbenzonitrile] | 0.505 | 1320 | –
Cc1c(C#N)cccc1[C@@H](C)Nc1nnc(N2CC[C@@H](N(C)C)C2)c2cnc(N3C[C@H]4C[C@@H]3CO4)cc12 [Example 5-2, 3-((R)-1-((7-((1R, 4R)-2-oxa-5-azabicyclo[2.2.1]heptan-5-yl)-4-((R)-3-(dimethylamino)pyrrolidin-1-yl)pyrido[3,4-d]pyridazin-1-yl)amino)ethyl)-2-methylbenzonitrile] | 0.973 | 115 | –
Cc1c(C#N)cccc1[C@@H](C)Nc1nnc(CN(C)C)c2cnc(N3CC4(COC4)C3)cc12 [Example 6-1, (R)-3-(1-((4-((dimethylamino)methyl)-7-(2-oxa-6-azaspiro[3.3]heptan-6-yl)pyrido[3,4-d]pyridazin-1-yl)amino)ethyl)-2-methylbenzonitrile] | 18.3 | 171 | –
COc1cc2c(C)nnc(N[C@H](C)c3cccc(C#N)c3C)c2cc1OC [Example 6-7, (R)-3-(1-((6,7-dimethoxy-4-methylphthalazin-1-yl)amino)ethyl)-2-methylbenzonitrile] | 14.5 | 177 | –
Cc1c(C#N)cccc1[C@@H](C)Nc1nnc(C)c2cnc(C3CCN(C)CC3)cc12 [Example 6-14, (R)-2-methyl-3-(1-((4-methyl-7-(1-methylpiperidin-4-yl)pyrido[3,4-d]pyridazin-1-yl)amino)ethyl)benzonitrile] | 8.89 | 468 | –
Cc1nnc(N[C@H](C)c2cccc(C(F)(F)F)c2F)c2cc(N3CCN(C)CC3)c(C#N)cc12 [Example 6-17, (R)-1-((1-(2-fluoro-3-(trifluoromethyl)phenyl)ethyl)amino)-4-methyl-7-(4-methylpiperazin-1-yl)phthalazine-6-carbonitrile] | 2.29 | 139 | –
Cc1nnc(N[C@H](C)c2cccc(C(F)(F)F)c2F)c2cc(N3CCOCC3)c(C#N)cc12 [Example 6-18, (R)-1-((1-(2-fluoro-3-(trifluoromethyl)phenyl)ethyl)amino)-4-methyl-7-morpholinophthalazine-6-carbonitrile] | 7.06 | 311 | –
